From US9801831B2, “Device for controlled release of a bioactive agent” (Nanyang Technological University, priority 2010, dated 2017)
≈ marks a conversion by molar mass, not a printed value.

Test: Solubility limit of paclitaxel in release buffer
Format: physicochemical
Settings: PBS/2% Tween-80 release buffer, pH 7.4, aqueous with cosolvent or surfactant or cyclodextrin
Protocol: The in-vitro release of paclitaxel was conducted in 2 mL of PBS/% Tween 80 release buffer (pH 7.4) at 37° C. using 6 mm punch-outs (1 punch-out/well) in triplicate. At predetermined time-points 2 mL of buffer was removed and another 2 mL replaced with PBS/Tween 80 release buffer, maintaining sink conditions throughout the release. Withdrawn aliquots (or standards/dissolutions samples) were filtered through a 0.2 μm PTFE syringe filter directly into HPLC vials and immediately capped. Paclitaxel was quantified with an Agilent Series 1100 HPLC (Santa Clara, Calif., USA) equipped with UV/Vis detector, autosampler, and column heater set to 35° C. A ZORBAX Eclipse XDB-C18 (5 μm) column of acetonitrile/water 60/40 (v/v) served as the mobile buffer, eluting the paclitaxel peak at ˜5.4 minutes with a flow rate 1.0 mL/min and the UV/Vis detector recording at 227 nm. A total dissolution study of the 6 mm discs in triplicate was conducted by dissolving the films in acetone and diluting in release buffer to determine the surface concentration of paclitaxel (μg/mm^2).

CC(=O)O[C@H]1C(=O)[C@@]2(C)[C@H]([C@H](OC(=O)c3ccccc3)[C@]3(O)C[C@H](OC(=O)[C@H](O)[C@@H](NC(=O)c4ccccc4)c4ccccc4)C(C)=C1C3(C)C)[C@]1(OC(C)=O)CO[C@@H]1C[C@@H]2O [paclitaxel]
solubility: 20 µg/mL (≈ 23.4 µM)
